Reference: patent US20200077655A1, “Use of an Acyclic Picolinamide Compound as a Fungicide for Control of Phytopathogenic Fungi in Orchard, Vineyard and Plantation Crops” (Dow AgroSciences LLC, priority 2017, published 2020)

Experiments:
Type in all cases: in vivo
[1] = test system: Monilinia fructicola (MONIFC); experiment: Field microplot assessment on brown rot on apricots; conditions: field grown apricots
From the text: A field trial assessing the utility of Compound I on rot diseases of stone fruits was done using apricots in a microplot method, part of an experimental trial designed as a randomized complete block with four replications. In a microplot method, two mature fruits on a single branch or cluster of fruits were selected for each replication (for a total of 10 replications) instead of using an entire replication. Colored flagging identified treatments. Fungicidal treatments containing Compound I, applied in a 5% EC formulation and tank mixed with an adjuvant (Trycol, 50% w/w at 0.2% v/v), were sprayed on apricots (PRNAR) at rates of 50, 100, and 150 grams of active ingredient per hectare (g ai/ha). The applications to the selected mature apricots were done at 7 days before harvest using a hand held manual spray bottle at a water volume of 500 L/ha. One day after application, a ZipLoc plastic bag was placed over the fruit or fruit cluster and an inoculation mix of MONIFC (Rhizopus was from natural population present in the orchard) was sprayed inside covering the fruits. The plastic bags were removed after 24 hours. At harvest, the fruits were collected in the field and placed in plastic Tupperware containers. 150 mL of de-ionized water was poured in the bottom of the Tupperware containers and the fruits were sprayed with a light mist of water. The containers were brought to the lab, enclosed in a large trash bag to keep the humidity high, and incubated on a lab bench at approximately 23° C. Visual disease incidence was assessed during the trial at 9 and 16 days after application. Area under the disease progress curve (AUDPC) was calculated for each plot using the sets of recorded incidence data. Relative AUDPC (% control based on AUDPC) was calculated as percent of the nontreated control.

[2] = test system: Monilinia fructicola (MONIFC); experiment: Field microplot assessment on brown rot on peaches; conditions: field grown peaches, 17 days after first application
From the text: A field trial assessing the utility of Compound I on rot diseases of stone fruits was also done on peaches using a microplot method, part of an experimental trial designed as a randomized complete block with four replications. In a microplot method, two mature fruits on a single branch or cluster of fruits were selected for each replication (for a total of 10 replications) instead of using an entire replication. Colored flagging identified treatments. One day before the first application, a ZipLoc plastic bag was placed over the fruit or fruit cluster and an inoculation mix of MONIFC was sprayed inside covering the fruits. The plastic bags were removed after 24 hours. After 24 hr, fungicidal treatments containing Compound I, applied in a 5% EC formulation and tank mixed with an adjuvant (Trycol, 50% w/w at 0.2% v/v), were then sprayed twice on peaches (PRNPS) at rates of 50, 100, and 150 grams of active ingredient per hectare (g ai/ha). The applications to the selected mature peaches were done at 14 and 7 days before harvest using a CO2 powered inoculation spray gun at a water volume of 500 L/ha. At harvest, the fruits were collected in the field and placed in plastic Tupperware containers. 150 mL of de-ionized water was poured in the bottom of the Tupperware containers and the fruits were sprayed with a light mist of water. The containers were brought to the lab, enclosed in a large trash bag to keep the humidity high, and incubated on a lab bench at approximately 23° C. The percentage of visual disease incidence and severity was assessed during the trial at 17 days after the first application.

[3] = test system: Botrytis cinerea (BOTRCI); experiment: Field assessment of gray mold on grapevine
From the text: On grapevine: A fungicidal treatment containing Compound I, applied in a 5% EC formulation and tank mixed with an adjuvant (Trycol, 50% w/w at 0.2% v/v), was sprayed only on the bunch portion of grape plants (VITVI, Pinot grey variety) at rates of 50, 150 and 200 grams of active ingredient per hectare (g ai/ha). The trial was based on two applications 28 days apart in open field conditions with disease inoculation 3 days after the last application (plant growth stage B83). The treatment was part of an experimental trial designed as a randomized complete block with four replications and a plot of approximately 2.5×7.0 m. Formulations of compound I were applied at water volume of 500 L/ha (bunches only), using a backpack plot sprayer ([…], Solo 433; Airatom nozzle). Disease severity was recorded as a percentage of incidence and infection of damaged bunches on a random sample of 100 bunches per plot. Gray mold infection was assessed three times, the first at 22 days after the last application (22DAAB), the second and third at 28DAAB and 36DAAB. Area under the disease progress curve (AUDPC) was calculated for each plot using the sets of recorded severity data. Relative AUDPC (% control based on AUDPC) was calculated as percent of the nontreated control.

[4] = test system: Monilinia laxa (MONILA); experiment: Field assessment on brown rot of flowers in stone fruits (apricots); conditions: 5% EC + Trycol, field grown apricots, protectant
From the text: A fungicidal treatment containing Compound I, applied in a 5% EC formulation and tank mixed with an adjuvant (Trycol, 50% w/w at 0.2% v/v), was sprayed twice during the flowering period on the plant canopy of apricots (PRNAR, Protici variety) at rates of 50, 100, and 150 grams of active ingredient per hectare (g ai/ha). The applications were done at 7 day intervals with disease inoculation at the last application (protectant). The treatment was part of an experimental trial designed as a randomized complete block with four replications and a plot of approximately 4.7×3.1 m, with compound I being applied using a MISTBLOW, Solo backpack applicator at a water volume of 500 L/ha. MONILA disease was evaluated on flowers on a sample of 10 pre-marked branches per tree. The number of infected flowers was counted and consequently the percent incidence was calculated. Visual infection was assessed three times during the trial at 10, 14 and 20 days after the second application. Area under the disease progress curve (AUDPC) was calculated for each plot using the sets of recorded severity data. Relative AUDPC (% control based on AUDPC) was calculated as percent of the nontreated control.

COc1ccnc(C(=O)N[C@@H](C)C(=O)O[C@@H](C)C(c2ccc(F)cc2)c2ccc(F)cc2)c1OC(C)=O [Compound I, (S)-1,1-bis(4-fluorophenyl)propan-2-yl (3-acetoxy-4-methoxypicolinoyl)-L-alaninate]
Percent control (AUDPC) from fruit incidence, MONIFC ([1]; 50 g ai/ha): B (51-75)
Percent control (AUDPC) from fruit incidence, MONIFC ([1]; 100 g ai/ha): B (51-75)
Percent control (AUDPC) from fruit incidence, MONIFC ([1]; 150 g ai/ha): B (51-75)
MONIFC, percentage of area affected on peaches (Severity) ([2]; 50 g ai/ha): 87.3%
MONIFC, percentage of area affected on peaches (Severity) ([2]; 100 g ai/ha): 57.0%
MONIFC, percentage of area affected on peaches (Severity) ([2]; 150 g ai/ha): 69.5%
Percent control (AUDPC) from fruit infection assessments ([3]; 50 g ai/ha): B (51-75)
Percent control (AUDPC) from fruit infection assessments ([3]; 150 g ai/ha): A (76-100)
Percent control (AUDPC) from fruit infection assessments ([3]; 200 g ai/ha): A (76-100)
% Control (AUDPC) from flower incidence assessments ([4]; 50 g ai/ha): B (51-75)
% Control (AUDPC) from flower incidence assessments ([4]; 100 g ai/ha): A (76-100)
% Control (AUDPC) from flower incidence assessments ([4]; 150 g ai/ha): A (76-100)
